The record followed here is patent US20170348258A1, “3-Amino Benzamide Derivative Serving As B-Lactam Auxiliary Antibiotic, Preparation Method and Use Thereof” (THE HONG KONG POLYTECHNIC UNIVERSITY, priority 2014, published 2017).

For one test, the system named is MRSA strain USA300#2960. The test can be described thus: Fractional Inhibitory Concentration Index (FICI) determination. The test is classed as cell-based, S. aureus. The protocol:
(§1) The bacterial strains used in this study were clinically isolated MRSA strains USA300#757 and #2960 which were obtained from our laboratory. Determination of the Fractional Inhibitory Concentration Index (FICI) was adopted by the Müller-Hinton broth (MHB) dilution method as previously described. Twelve serial two-fold dilutions of PC190723, F332 and F361 were prepared in the 96-well microplate with concentration ranging from 512 to 0.25 μg/mL. A series of two-fold dilutions of ampicillin, cloxacillin and cefuroxime were also prepared following the same procedure. Lastly, the compounds and the β-lactams were mixed at a 1:1 ratio and subjected to two-fold dilution as described previously. Each microplate well contained 100 μL of MHB supplemented with compounds alone, β-lactams alone or the mixture of compounds and β-lactams. Overnight cultures of S. aureus in the Müller-Hinton broth was diluted to OD595 of 0.08-0.1 in saline and added in each of the microplate well. The plates were incubated at 37° C. for 20 h. All tests were performed in duplicate and the inhibition of bacterial growth was determined by visualization. The FICI of compounds and β-lactams were calculated as followed: FICI=(MIC of combination of compound and β-lactam/MIC of compound alone)+(MIC of combination of compound and β-lactam/MIC of β-lactam alone).

The test system of a further test is MRSA strain 200. The test can be described thus: FICI of F332 with antibiotics. The test is classed as cell-based, S. aureus.
In the next test the test system is MRSA strain 358. Nature of the test: FICI of F332 with antibiotics. The test is classed as cell-based, S. aureus.
The target of test [1] is T1, S. aureus FtsZ (Staphylococcus aureus, UniProt P0A031).
T1 construct: inferred from capture on a nickel chelating column and imidazole elution; made in house; host or cells: E. coli BL21
T1 sequence (P0A031 1-390): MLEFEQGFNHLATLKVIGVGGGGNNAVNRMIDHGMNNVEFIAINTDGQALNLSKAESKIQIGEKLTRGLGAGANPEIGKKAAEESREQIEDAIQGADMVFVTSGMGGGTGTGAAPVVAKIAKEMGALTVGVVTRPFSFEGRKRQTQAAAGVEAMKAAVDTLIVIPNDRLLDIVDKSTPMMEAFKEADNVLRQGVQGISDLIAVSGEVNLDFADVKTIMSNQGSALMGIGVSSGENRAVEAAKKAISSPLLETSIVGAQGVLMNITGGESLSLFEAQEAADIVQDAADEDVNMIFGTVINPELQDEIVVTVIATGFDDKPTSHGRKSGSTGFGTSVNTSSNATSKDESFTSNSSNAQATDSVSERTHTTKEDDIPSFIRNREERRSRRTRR
Nature of the test: Light scattering assay (FtsZ polymerization). The test is classed as biochemical. The conditions noted are these: S. aureus FtsZ 12 μM, 1 mM GTP, serial dilutions of compound. As to the method:
Light scattering assay was used to determine the degree of FtsZ polymerization by measuring the 90° light scattering signal using a fluorescence spectrometer (Perkin-Elmer, USA). The excitation and emission wavelengths were set to 600 nm with a slit width of 5 nm. S. aureus FtsZ (12 μM) was incubated with serial dilutions of the compounds in 50 mM MOPS buffer (pH 6.8) at 25° C. for 10 minutes. The control contained 1% DMSO only. KCl (final concentration: 50 mM) and MgCl2 (final concentration: 10 mM) were then added to the mixture. The mixture was incubated at 37° C. for 8 minutes in order to establish a baseline. A final concentration of 1 mM GTP was added and the light scattering signal was measured for 1,500 seconds. The relative light scattering signals in experimental set-up were calculated with reference to the light scattering signal in control experiment. Three independent experiments were carried out for each compound concentration.

Another test has as its system B. subtilis 168 cells. Nature of the test: Effects on the morphology of B. subtilis cells. The conditions noted are these: for average cell length of B. subtilis: compound at half of MIC (1.56 μM F332, 0.78 μM F361), untreated 3.5±0.7 μm; for average cell length of B. subtilis / lengthening of cell length of B. subtilis versus untreated: 4 hours; for lengthening of cell length of B. subtilis versus untreated: compound at half of MIC; for filamentation of B. subtilis 168 cells: sub-lethal concentrations. Format: cell-based. As to the method:
The log-phase culture of B. subtilis was tested with the two compounds with a final concentration of half of MIC value. A 1% DMSO solution was used as the control.

The next test has as its system MRSA strain USA300#757. The test can be described thus: Fractional Inhibitory Concentration Index (FICI) determination. The test is classed as cell-based, S. aureus. The protocol:
as §1, with “A series of two-fold dilutions of ampicillin, cloxacillin and cefuroxime were also prepared following the same procedure.” left out

For test [2], the target named is T1, S. aureus FtsZ. Nature of the test: Transmission electron microscopy of FtsZ polymer morphology. Format: biochemical. The conditions noted are these: 100 μM compound, GTP 1 mM, 37° C. 15 minutes. The protocol: TEM provides a direct observation of FtsZ polymer morphology. Two promising compounds F332 and F361 were chosen for testing. S. aureus FtsZ ([…]) was incubated with the compounds at different concentrations in 50 mM MOPS buffer (pH 6.5) at 25° C. for 10 minutes. The control contained 1% DMSO only. KCl (final concentration: 50 mM) and MgCl2 (final concentration: 5 mM) were then added to the mixture. The mixture was incubated with GTP (final concentration: 1 mM) at 37° C. for 15 minutes. 10 μL reaction mixtures were applied on a glow-discharged Formvar carbon-coated copper grid (400 meshes) at 25° C. for 10 minutes. 10 μL of 0.5% phosphotungistic acid (PTA) was applied on the copper grid in order to negatively stain the proteins. The copper grid was allowed to air dry overnight.

Turning to `CCCCCCCCCNc1ccc(F)c(C(N)=O)c1F` [Compound F332, 2,6-difluoro-3-(nonylamino)benzamide], in the test on MRSA strain USA300#2960, the “FICI with Ampicillin” value is 0.28, the “FICI with Cefotaxime” value amounted to 0.38, the “FICI with Cefuroxime” value came to 0.38 and the “FICI with Cloxacillin” value was 1.02. In addition, the “FICI with Meropenem” value with MRSA strain USA300#2960 is reported as 0.28. In the test on MRSA strain 200, the “FICI of F332 combined with Amoxicillin” value stood at 0.02, the “FICI of F332 combined with Cefuroxime” value amounted to 1.00, the “FICI of F332 combined with Cloxacillin” value is listed as 1.00 and the “FICI of F332 combined with Meropenem” value is 8.01. Also, in the test with MRSA strain 200, the “FICI of F332 combined with Meticillin” value is 0.25. In the test on MRSA strain 358, the “FICI of F332 combined with Amoxicillin” value came out at 0.27, the “FICI of F332 combined with Cefuroxime” value amounted to 1.13, the “FICI of F332 combined with Cloxacillin” value stood at 1.06 and the “FICI of F332 combined with Meropenem” value is 129.0. Further, the “FICI of F332 combined with Meticillin” value with MRSA strain 358 stood at 0.25. Besides, at S. aureus FtsZ [1], the “effect on light scattering signal of FtsZ assembly (polymerization)” value was “inhibit the light scattering of FtsZ assembly”. In the test on B. subtilis 168 cells, the “average cell length of B. subtilis” value worked out at 11.7±4.5 μm, the “lengthening of cell length of B. subtilis versus untreated” value is “three-fold lengthening” and the “filamentation of B. subtilis 168 cells” value is reported as “cause filamentation”. For the same compound, in the test on MRSA strain USA300#757, the “FICI with Ampicillin” value was determined as 0.52, the “FICI with Cefotaxime” value is 0.13, the “FICI with Cefuroxime” value came out at 0.09 and the “FICI with Cloxacillin” value came to 1.02. For the same compound, the “FICI with Meropenem” value in the test on MRSA strain USA300#757 is on record as 1.06. For the same compound, on S. aureus FtsZ [2], the “FtsZ polymer morphology (TEM)” value is “relatively short and straight single strand FtsZ protofilaments”.

With `CCCCCCCCCN(C)c1ccc(F)c(C(N)=O)c1F` [Compound F361, 2,6-difluoro-3-(methyl(nonyl)amino)benzamide], in the test on MRSA strain USA300#2960, the “FICI with Cefotaxime” value was found to be 1.00 and the “FICI with Meropenem” value came to 0.28. Besides, the “effect on light scattering signal of FtsZ assembly (polymerization)” value at S. aureus FtsZ [1] is “inhibit the light scattering of FtsZ assembly”. In the test with B. subtilis 168 cells, the “average cell length of B. subtilis” value is on record as 21.1±1.8 μm, the “lengthening of cell length of B. subtilis versus untreated” value was “six-fold lengthening” and the “filamentation of B. subtilis 168 cells” value is reported as “cause filamentation”. Further, in the test with MRSA strain USA300#757, the “FICI with Cefotaxime” value is 0.38 and the “FICI with Meropenem” value is reported as 1.13. Moreover, the “FtsZ polymer morphology (TEM)” value on S. aureus FtsZ [2] was “relatively short and straight single strand FtsZ protofilaments”.
